Measured values taken from PubChem BioAssay (NCI).
Values joined by “and” are separate entries in the source; they are usually repeats but may differ in a detail not shown here. Equal entries are not always repeated.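 Following 48 hours of exposure in 96-well plates, responses at five concentrations were used to interpolate endpoints linearly. GI50 = concentration required for 50% inhibition of growth. TGI is the concentration that stops growth completely.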

Columns and labels:
Assay in all cases: inhibition of tumour cell growth, NCI panel, 48 h
[1] = system: HOP-92 NSCLC
[2] = system: MDA-MB-231 breast
[3] = system: M14 melanoma
[4] = system: MALME-3M melanoma
[5] = system: BT-549 breast
[6] = system: EKVX NSCLC
[7] = system: T-47D breast
[8] = system: KM12 colon
[9] = system: UACC-257 melanoma
[10] = system: NCI-H226 lung

Row | Compound | TGI [1] | TGI [2] | TGI [3] | TGI [4] | TGI [5] | TGI [6] | TGI [7] | TGI [8] | TGI [9] | TGI [10] | GI50 [1] | GI50 [2] | GI50 [3] | GI50 [4] | GI50 [5] | GI50 [6] | GI50 [7] | GI50 [8] | GI50 [9] | GI50 [10]
1 | O=C(O)CNC(=O)C1NC(C(F)(F)F)(C(F)(F)F)OC1(C(F)(F)F)C(F)(F)F (configuration not stated) | > 100 µM | > 100 µM | > 100 µM | > 100 µM | > 100 µM | > 100 µM | > 100 µM | > 100 µM | > 100 µM | > 100 µM |  |  |  |  |  |  |  |  |  | 
2 | Cc1ccc2c(c1)-c1oc(=O)c(-c3cc4ccccc4oc3=O)cc1C(O)O2 (configuration not stated) | 40.5 µM | 43.7 µM | 40.6 µM | 28.2 µM | 25.5 µM | 25.7 µM | 41.7 µM | 48.3 µM | 92.6 µM | 40.5 µM | 17.3 µM | 15.2 µM | 21.4 µM | 10.2 µM | 12.7 µM | 11.8 µM | 21.3 µM | 19.6 µM | 34 µM | 18.9 µM
3 | O=C1CCC(N2C(=O)c3cccc(NCCOCCOCCNC(=O)c4cc5c(o4)C(=O)c4ccccc4C5=O)c3C2=O)C(=O)N1 (configuration not stated) | 12.5 µM | 7.31 µM | 2.6 µM | 0.448 µM | 2.84 µM | 8.39 µM | 8.05 µM | 10.9 µM | 2.85 µM | 3.8 µM | 3.27 µM | 2.29 µM | 1.2 µM | 0.184 µM | 1.47 µM | 2.62 µM | 2.46 µM | 3.19 µM | 1.48 µM | 1.7 µM
4 | C[C@H](C(O)CC(=O)C(C)(C)O)[C@H]1CC[C@@]2(C)[C@@H]3CC[C@H]4C(C)(C)[C@@H](OC5OC(COC6OC(CO)C(O)C(O)C6O)C(O)C(O)C5O)CC[C@]4(C)C3=CC[C@]12C (some centres not stated) | > 100 µM | > 100 µM | > 100 µM | > 100 µM | > 100 µM | > 100 µM | > 100 µM | > 100 µM | > 100 µM | > 100 µM |  |  |  |  |  |  |  |  |  | 
5 | CC(C)Cc1ccc(C(C)/C=C2\CCC(CN3CCCCC3)C2=O)cc1 (configuration not stated) | 30.4 µM | 17.2 µM | 18.2 µM | 31.1 µM | 34.4 µM | 21.1 µM | 45.5 µM | 6.36 µM | 26.4 µM | 32.2 µM |  |  |  |  |  |  |  |  |  | 
6 | CCN(CC)CCC(=O)N1C/C(=C/c2ccccc2)C(=O)/C(=C\c2ccccc2)C1 | 17 µM | 2.57 µM | 6.63 µM | 7.36 µM | 1.81 µM | 13.6 µM | 4.07 µM | 2.51 µM | 4.98 µM | 13.7 µM |  |  |  |  |  |  |  |  |  | 
7 | COc1ccc(-c2cc(-c3ccc(Cl)cc3)nc(SCCCCCCC(=O)NO)n2)cc1 | 3.67 µM | 8.89 µM | 4.74 µM | 5.5 µM | 14 µM | 22.3 µM | > 50 µM | 13.1 µM | > 50 µM | 23.9 µM | 1.17 µM | 1.74 µM | 1.26 µM | 1.14 µM | 2.16 µM | 2.61 µM | 1.42 µM | 2.2 µM | 1.88 µM | 1.9 µM
8 | COc1ccc2c(c1)c(-c1ccc(-c3cn(C)c4ccc(OC)cc34)o1)cn2C | 10.3 µM | 22.2 µM | > 100 µM | > 100 µM | 18.2 µM | 23.4 µM | 11.4 µM | 7.08 µM | > 100 µM | > 100 µM | 1.03 µM | 2.37 µM | 16.7 µM | 52.8 µM | 5.11 µM | 5.48 µM | 2.72 µM | 2.73 µM | 27 µM | 23.6 µM
9 | N#Cc1ccc(NC(=O)Nc2nc3ccc(OC(F)(F)F)cc3s2)cc1 |  | 3.65 µM | 6.53 µM | 5.92 µM | 9.36 µM | 14.7 µM | 5.8 µM | 6.89 µM | 6.4 µM | 10.4 µM | 0.324 µM | 0.935 µM | 2.37 µM | 0.843 µM | 2.78 µM | 1.36 µM | 0.428 µM | 1.02 µM | 1.35 µM | 1.98 µM
10 | CCOC(=O)C(=O)C(/C(=N/N(C)C)C(=O)Nc1ccc(C)cc1C)c1nc2ccccc2[nH]c1=O (configuration not stated) | > 100 µM | > 100 µM | > 100 µM | > 100 µM | > 100 µM | > 100 µM | > 100 µM | > 100 µM | > 100 µM | > 100 µM |  |  |  |  |  |  |  |  |  | 
11 | CCCCCCC(O)C(O)CCC(O)C1CCC(CCCCC(O)CC2=CC(C)OC2=O)O1 (configuration not stated) | 46.7 µM | 6.4 µM and 46.9 µM | 36 µM | 33.8 µM | 66.8 µM | 12 µM | 40.7 µM | 77.7 µM | 41.9 µM | 34.7 µM | 18.5 µM | 18.5 µM | 17.7 µM |  |  | 0.291 µM | 4.99 µM | 24.5 µM | 3.16 µM | 15.2 µM
